Structures can show the parent of a compound that is named as a salt.

The subject of experiment [1] is phenyl-p-quinone writhing in mice. Put plainly: Analgesic activity: phenyl-p-quinone induced writhing in mice. The note with it: 1 hour prior to phenyl-p-quinone injection, observed 8 minutes, Litchfield and Wilcoxon; for ED50: Mus musculus, po, read-out: ED50 (mice prevented from writhing). Type of experiment: in vivo, male T/O mice. As for the experimental part: Groups of 10 male T/O mice weighing between 20 and 25 g were injected intraperitoneally with 0.2 ml of a 0.02% solution of phenyl-p-quinone maintained at 37° C. […] Compounds were administered orally 1 hour prior to phenyl-p-quinone injection. The percentage of mice prevented from writhing in each group was plotted against dose of compound on log probit paper and the ED50 was calculated by the method of Litchfield, J. T. and Wilcoxon, F. (1949), J. Pharmac. exp. Ther., 96 (2), 99-113.
(In general: In writhing tests, fewer writhes than in controls are read as antinociception.)

Experiment [2] concerns carrageenin-induced oedema in rat paw. Put plainly: Anti-inflammatory activity: standard rat paw carrageenin-induced oedema test. The experiment is classed as in vivo, male Wistar rats. The note with it: 1 hr before carrageenin. As for the experimental part: The sodium salt of compound (1) was tested for anti-inflammatory activity by the standard rat paw carrageenin-induced oedema test:
Groups of 8 male Wistar rats weighing between 120 and 165 g. were dosed orally with the compound 1 hr. before the sub-cutaneous injection of 0.1 ml 1.5% carrageenin into a paw to induce oedema. The duration of the oedema was 3-31/2 hr. The significance of results was assessed by Student's `t` test.
In general terms: Carrageenan injected into the paw causes an acute inflammation.

One may read the ED50 as the dose that gives a 50% effect, or the effect in half of the subjects. Take `Cn1c(CC(=O)O)cc(C(F)(F)F)c1C(=O)c1ccc(Cl)cc1` [(1), 5-p-Chlorobenzoyl-1-methyl-4-trifluoromethylpyrrole-2-acetic acid]: the ED50 in experiment [1] was 1.75 mg/kg.
Turning to `CC(=O)CCc1cc(C(F)(F)F)c(C(=O)c2ccc(Cl)cc2)n1C` [(13), 4-[5'-(4"-chlorobenzoyl)-1'-methyl-4'-trifluoromethyl-2'-pyroyl]butan-2-one], the ED50 in experiment [1] came to 25 mg/kg.
Regarding `Cn1c(CC(=O)O)cc(C(F)(F)F)c1C(=O)c1ccc(Cl)cc1` [sodium salt of compound (1)], the “% inhibition of oedema w.r.t. methylcellulose control” value in experiment [2] (1.67 mg/kg p.o., *0.001 < p < 0.01) worked out at 18%; in experiment [2] (5 mg/kg p.o., **p < 0.001), 25%; in experiment [2] (15 mg/kg p.o., **p < 0.001) it was 30%. Besides, the ED25 in experiment [2] (rat, oral, read-out: ED25 (inhibition of oedema)) is 5.5 mg/kg. In experiment [1] (oral, listed as No salt thereof), the “ED50 (mice prevented from writhing)” value came out at 1.6 mg/kg p.o.

The record behind these values is patent US4396626A, “Cyclic compounds and their use” (Beecham Group Limited, priority 1980, dated 1983).
